{"source": "patent US20140140946A1", "about": "“SKIN PREPARATION COMPOSITION FOR EXTERNAL USE WITH EXCELLENT ANTIBACTERIAL AND ANTIFUNGAL EFFECTS” (priority 2010, published 2014)", "type_in_all_cases": "cell-based", "key": {"[1]": {"test_system": "Pityrosporum ovale (Malassezia furfur)", "experiment": "Growth of Pityrosporum ovale in Leeming & Notman medium", "conditions": "32° C. for 3 days; FIG. 4; trisodium phosphate at pH 8.0", "method": "Each of citric acid (pH 4.0), trisodium phosphate (TSP, pH 8.4) and citric acid+trisodium phosphate (pH 5.0) was added to Leeming & Notman medium of 1 L containing glucose 10 g, peptone 10 g, bile salts 8 g, yeast extract 2 g, glycerol monostearate 0.5 g, glycerol 10 ml and Tween 80 (1.5%) 15 ml, and 0.1 ml of Pityrosporum ovale (Malassezia furfur), which is a kind of fungi known for causing atopy, was injected to each group."}, "[2]": {"test_system": "Peptostreptococcus asaccharolyticus (KTCC 3321)", "experiment": "Growth of Peptostreptococcus asaccharolyticus in Wilkins Chalgren Anaerobe Broth", "conditions": "citric acid 0.8 g, trisodium phosphate 1.85 g, pH 6.0", "description": "(§1) The following control group is a broth not injected with the bacteria."}, "[3]": {"test_system": "Streptococcus mitis (KCTC 3556)", "experiment": "Growth of Streptococcus mitis in BHI broth", "conditions": "citric acid 0.4 g, trisodium phosphate 0.64 g, pH 6.0", "description": "as §1"}, "[4]": {"test_system": "Streptococcus mutans (KCTC 3065)", "experiment": "Growth of Streptococcus mutans in BHI broth", "conditions": "citric acid 0.4 g, trisodium phosphate 0.64 g, pH 6.0", "description": "as §1"}, "[5]": {"test_system": "S. salivarius (KCTC 3960)", "experiment": "Growth of S. salivarius in BHI broth", "conditions": "citric acid 0.4 g, trisodium phosphate 0.64 g, pH 6.0", "description": "as §1"}, "[6]": {"test_system": "Streptococcus sanguinis", "experiment": "Growth of Streptococcus sanguinis in BHI broth", "conditions": "citric acid 0.4 g, trisodium phosphate 0.64 g, pH 6.0", "description": "as §1"}}}
{"compound": "O=P([O-])([O-])[O-].[Na+].[Na+].[Na+]", "note": "[trisodium phosphate]", "values": [{"measurement": "growth of P. ovale", "setting": "[1]", "value": "significantly suppressed"}]}
{"compound": "HCl [Broth D]", "values": [{"measurement": "Absorbance (OD)", "setting": "[2]; 4 hrs", "value": 0.005, "unit": "OD"}, {"measurement": "Absorbance (OD)", "setting": "[2]; 8 hrs", "value": 0.010, "unit": "OD"}, {"measurement": "Absorbance (OD)", "setting": "[2]; 12 hrs", "value": 0.002, "unit": "OD"}, {"measurement": "Absorbance (OD)", "setting": "[2]; 16 hrs", "value": 0.008, "unit": "OD"}, {"measurement": "Growth observed (in words)", "setting": "[2]; 20 hrs", "value": "No change"}, {"measurement": "Growth observed (in words)", "setting": "[2]; 24 hrs", "value": "No change"}, {"measurement": "Growth observed (in words)", "setting": "[2]; 56 hrs", "value": "Full growth"}, {"measurement": "Absorbance (OD)", "setting": "[3]; 4 hrs", "value": 0.054, "unit": "OD"}, {"measurement": "Absorbance (OD)", "setting": "[3]; 6 hrs", "value": 0.104, "unit": "OD"}, {"measurement": "Absorbance (OD)", "setting": "[3]; 8 hrs", "value": 0.205, "unit": "OD"}, {"measurement": "Absorbance (OD)", "setting": "[3]; 10 hrs", "value": 0.244, "unit": "OD"}, {"measurement": "Absorbance (OD)", "setting": "[3]; 12 hrs", "value": 0.218, "unit": "OD"}, {"measurement": "Absorbance (OD)", "setting": "[3]; 14 hrs", "value": 0.127, "unit": "OD"}, {"measurement": "Absorbance (OD)", "setting": "[3]; 16 hrs", "value": 0.089, "unit": "OD"}, {"measurement": "Absorbance (OD)", "setting": "[3]; 18 hrs", "value": 0.092, "unit": "OD"}, {"measurement": "Absorbance (OD)", "setting": "[4]; 4 hrs", "value": 0.032, "unit": "OD"}, {"measurement": "Absorbance (OD)", "setting": "[4]; 6 hrs", "value": 0.092, "unit": "OD"}, {"measurement": "Absorbance (OD)", "setting": "[4]; 8 hrs", "value": 0.141, "unit": "OD"}, {"measurement": "Absorbance (OD)", "setting": "[4]; 10 hrs", "value": 0.200, "unit": "OD"}, {"measurement": "Absorbance (OD)", "setting": "[4]; 12 hrs", "value": 0.244, "unit": "OD"}, {"measurement": "Absorbance (OD)", "setting": "[4]; 14 hrs", "value": 0.212, "unit": "OD"}, {"measurement": "Absorbance (OD)", "setting": "[4]; 16 hrs", "value": 0.235, "unit": "OD"}, {"measurement": "Absorbance (OD)", "setting": "[4]; 18 hrs", "value": 0.210, "unit": "OD"}, {"measurement": "Absorbance (OD)", "setting": "[5]; 4 hrs", "value": 0.011, "unit": "OD"}, {"measurement": "Absorbance (OD)", "setting": "[5]; 6 hrs", "value": 0.068, "unit": "OD"}, {"measurement": "Absorbance (OD)", "setting": "[5]; 8 hrs", "value": 0.167, "unit": "OD"}, {"measurement": "Absorbance (OD)", "setting": "[5]; 10 hrs", "value": 0.192, "unit": "OD"}, {"measurement": "Absorbance (OD)", "setting": "[5]; 12 hrs", "value": 0.224, "unit": "OD"}, {"measurement": "Absorbance (OD)", "setting": "[5]; 14 hrs", "value": 0.234, "unit": "OD"}, {"measurement": "Absorbance (OD)", "setting": "[5]; 16 hrs", "value": 0.319, "unit": "OD"}, {"measurement": "Absorbance (OD)", "setting": "[5]; 18 hrs", "value": 0.224, "unit": "OD"}, {"measurement": "Absorbance (OD)", "setting": "[6]; 4 hrs", "value": 0.018, "unit": "OD"}, {"measurement": "Absorbance (OD)", "setting": "[6]; 6 hrs", "value": 0.039, "unit": "OD"}, {"measurement": "Absorbance (OD)", "setting": "[6]; 8 hrs", "value": 0.118, "unit": "OD"}, {"measurement": "Absorbance (OD)", "setting": "[6]; 10 hrs", "value": 0.127, "unit": "OD"}, {"measurement": "Absorbance (OD)", "setting": "[6]; 12 hrs", "value": 0.283, "unit": "OD"}, {"measurement": "Absorbance (OD)", "setting": "[6]; 14 hrs", "value": 0.303, "unit": "OD"}, {"measurement": "Absorbance (OD)", "setting": "[6]; 16 hrs", "value": 0.203, "unit": "OD"}, {"measurement": "Absorbance (OD)", "setting": "[6]; 18 hrs", "value": 0.199, "unit": "OD"}]}
